Reference: patent US9732081B2, “1,6-diazabicyclo [3,2,1] octan-7-one derivatives and their use in the treatment of bacterial infections” (WOCKHARDT LIMITED, priority 2012, dated 2017)
≈ marks a conversion by molar mass, not a printed value. Like-named read-outs stand apart in the source and are kept apart here.

Tests used:
Format in all cases: cell-based
E. Coli H 483 = experiment: Antibacterial activity (MIC, agar dilution per CLSI) against E. Coli H 483; details: for MIC: Escherichia coli, read-out: MIC E. Coli H 483
Method: (§1) The biological activity of representative compounds according to the invention against various bacterial strains was investigated. In a typical study, overnight grown bacterial cultures were diluted appropriately and inoculated on the agar media containing doubling dilutions of the test compounds. Observation for growth or no growth was performed after 16-20 hours of incubation at 35±2° C. in ambient air. The overall procedure was performed as per Clinical and Laboratory Standards Institute (CLSI) recommendations (Clinical and Laboratory Standards Institute (CLSI), Performance Standards for Antimicrobial Susceptibility Testing, 20th Informational Supplement, M 100-S20, Volume 30, No. 1, 2010).
(§2) The activities are expressed as MICs (mcg/ml).

E. Coli M 50 = experiment: Antibacterial activity (MIC, agar dilution per CLSI) against E. Coli M 50; details: for MIC: Escherichia coli
Method: as §1, §2

E. Coli W 13352 = experiment: Antibacterial activity (MIC, agar dilution per CLSI) against E. Coli W 13352; details: for MIC: Escherichia coli
Method: as §1, §2

P. aeruginosa Ps 32 = experiment: Antibacterial activity (MIC, agar dilution per CLSI) against P. aeruginosa Ps 32; details: for MIC: Pseudomonas aeruginosa
Method: as §1, §2

E. Coli W 13353 = experiment: Antibacterial activity (MIC, agar dilution per CLSI) against E. Coli W 13353; details: for MIC: Escherichia coli
Method: as §1, §2

P. aeruginosa Ps 21 = experiment: Antibacterial activity (MIC, agar dilution per CLSI) against P. aeruginosa Ps 21; details: for MIC: Pseudomonas aeruginosa
Method: as §1, §2

E. Coli W 13351 = experiment: Antibacterial activity (MIC, agar dilution per CLSI) against E. Coli W 13351; details: for MIC: Escherichia coli
Method: as §1, §2

[1] = MDR Gram negative strain, Class C ESBL, agar dilution, 16-20 hours at 35±2° C.
[2] = MDR Gram negative strain, Class C ESBL, 16-20 hours at 35±2° C., read-out: MIC E. Coli M 50
[3] = MDR Gram negative strain, Class A ESBL, 16-20 hours at 35±2° C., read-out: MIC E. Coli W 13352
[4] = PS32, MDR P. aeruginosa strain, agar dilution, 16-20 hours at 35±2° C., read-out: MIC Ps 32
[5] = MDR Gram negative strain, Class A ESBL, 16-20 hours at 35±2° C., read-out: MIC E. Coli W 13353
[6] = PS21, MDR P. aeruginosa strain, agar dilution, 16-20 hours at 35±2° C., read-out: MIC Ps 21
[7] = MDR Gram negative strain, Class A ESBL, 16-20 hours at 35±2° C., read-out: MIC E. Coli W 13351
[8] = MDR Gram negative strain, Class C ESBL, 16-20 hours at 35±2° C.
[9] = MDR Gram negative strain, Class A ESBL, 16-20 hours at 35±2° C.
[10] = MDR P. aeruginosa strain, agar dilution, 16-20 hours at 35±2° C.

C[C@@H](O)[C@H]1C(=O)N2C(C(=O)O)=C(SCCN=CN)C[C@H]12 [Imipenem, reference compound]
MIC (E. Coli H 483; [1]): 1 µg/mL (≈ 3.34 µM)
MIC (E. Coli M 50; [2]): 0.5 µg/mL (≈ 1.67 µM)
MIC (E. Coli W 13352; [3]): 0.25 µg/mL (≈ 0.835 µM)
MIC (P. aeruginosa Ps 32; [4]): > 32 µg/mL
MIC (E. Coli W 13353; [5]): 0.25 µg/mL (≈ 0.835 µM)
MIC (P. aeruginosa Ps 21; [6]): > 32 µg/mL
MIC (E. Coli W 13351; [7]): 0.25 µg/mL (≈ 0.835 µM)

CC(C)(O/N=C(\C(=O)N[C@@H]1C(=O)N2C(C(=O)[O-])=C(C[n+]3ccccc3)CS[C@H]12)c1csc(N)n1)C(=O)O [Ceftazidime, reference compound]
MIC (E. Coli H 483; [1]): > 32 µg/mL
MIC (E. Coli M 50; [2]): > 32 µg/mL
MIC (E. Coli W 13352; [3]): > 32 µg/mL
MIC (P. aeruginosa Ps 32; [4]): > 32 µg/mL
MIC (E. Coli W 13353; [5]): 32 µg/mL (≈ 58.5 µM)
MIC (P. aeruginosa Ps 21; [6]): > 32 µg/mL
MIC (E. Coli W 13351; [7]): 32 µg/mL (≈ 58.5 µM)

O=C(NOC[C@H]1CCNC1)[C@@H]1CC[C@@H]2CN1C(=O)N2OS(=O)(=O)O [Example 3, (2S,5R)-7-oxo-N-[(3S)-pyrrolidin-3-ylmethyloxy]-6-(sulfooxy)-1,6-diazabicyclo[3.2.1]octane-2-carboxamide]
MIC (E. Coli H 483; [1]): > 32 µg/mL
MIC (E. Coli M 50; [2]): 8 µg/mL (≈ 22 µM)
MIC (E. Coli W 13352; [3]): 16 µg/mL (≈ 43.9 µM)
MIC (P. aeruginosa Ps 32; [4]): > 32 µg/mL
MIC (E. Coli W 13353; [5]): 8 µg/mL (≈ 22 µM)
MIC (P. aeruginosa Ps 21; [6]): > 32 µg/mL
MIC (E. Coli W 13351; [7]): 16 µg/mL (≈ 43.9 µM)

O=C(NOCC1CCCCN1)[C@@H]1CC[C@@H]2CN1C(=O)N2OS(=O)(=O)O (stereo partly drawn) [Example 17, (2S,5R)-7-oxo-N-((2R,S)piperidin-2-ylmethyloxy)-6-(sulfooxy)-1,6-diazabicyclo[3.2.1]octane-2-carboxamide]
MIC E. Coli H 483 (E. Coli H 483; [1]): >32 µg/mL
MIC E. Coli M 50 (E. Coli M 50; [8]): 0.5 µg/mL (≈ 1.32 µM)
MIC E. Coli W 13352 (E. Coli W 13352; [9]): 1 µg/mL (≈ 2.64 µM)
MIC Ps 32 (P. aeruginosa Ps 32; [10]): >32 µg/mL
MIC E. Coli W 13353 (E. Coli W 13353; [9]): 0.5 µg/mL (≈ 1.32 µM)
MIC Ps 21 (P. aeruginosa Ps 21; [10]): >32 µg/mL
MIC E. Coli W 13351 (E. Coli W 13351; [9]): 1 µg/mL (≈ 2.64 µM)

O=C(NOC[C@@H]1CCNC1)[C@@H]1CC[C@@H]2CN1C(=O)N2OS(=O)(=O)O [Example 4, (2S,5R)-7-oxo-N-[(3R)-pyrrolidin-3-ylmethyloxy]-6-(sulfooxy)-1,6-diazabicyclo[3.2.1]octane-2-carboxamide]
MIC (E. Coli H 483; [1]): > 32 µg/mL
MIC (E. Coli M 50; [2]): 8 µg/mL (≈ 22 µM)
MIC (E. Coli W 13352; [3]): 8 µg/mL (≈ 22 µM)
MIC (P. aeruginosa Ps 32; [4]): > 32 µg/mL
MIC (E. Coli W 13353; [5]): 8 µg/mL (≈ 22 µM)
MIC (P. aeruginosa Ps 21; [6]): > 32 µg/mL
MIC (E. Coli W 13351; [7]): 8 µg/mL (≈ 22 µM)

CN(C)c1cc(NC(=O)CNC(C)(C)C)c(O)c2c1C[C@H]1C[C@H]3[C@H](N(C)C)C(O)=C(C(N)=O)C(=O)[C@@]3(O)C(O)=C1C2=O [Tigecyclin, Tigecycline, reference compound]
MIC (E. Coli H 483): 0.5 µg/mL (≈ 0.854 µM)
MIC (E. Coli M 50; read-out: MIC E. Coli M 50, MDR Gram negative strain, Class C ESBL, 16-20 hours at 35±2° C.): 0.5 µg/mL (≈ 0.854 µM)
MIC (E. Coli W 13352; read-out: MIC E. Coli W 13352, MDR Gram negative strain, Class A ESBL, 16-20 hours at 35±2° C.): 0.25 µg/mL (≈ 0.427 µM)
MIC (P. aeruginosa Ps 32; PS32, read-out: MIC Ps 32): 16 µg/mL (≈ 27.3 µM)
MIC (E. Coli W 13353; read-out: MIC E. Coli W 13353, MDR Gram negative strain, Class A ESBL, 16-20 hours at 35±2° C.): 1 µg/mL (≈ 1.71 µM)
MIC (P. aeruginosa Ps 21; PS21, read-out: MIC Ps 21): 16 µg/mL (≈ 27.3 µM)
MIC (E. Coli W 13351; read-out: MIC E. Coli W 13351, MDR Gram negative strain, Class A ESBL, 16-20 hours at 35±2° C.): 1 µg/mL (≈ 1.71 µM)

O=C(NOC[C@H]1CCCN1)[C@@H]1CC[C@@H]2CN1C(=O)N2OS(=O)(=O)O [Example 2, (2S,5R)-7-oxo-N-[(2R)-pyrrolidin-2-ylmethyloxy]-6-(sulfooxy)-1,6-diazabicyclo[3.2.1]octane-2-carboxamide]
MIC (E. Coli H 483; [1]): > 32 µg/mL
MIC (E. Coli M 50; [2]): 1 µg/mL (≈ 2.74 µM)
MIC (E. Coli W 13352; [3]): 2 µg/mL (≈ 5.49 µM)
MIC (P. aeruginosa Ps 32; [4]): > 32 µg/mL
MIC (E. Coli W 13353; [5]): 1 µg/mL (≈ 2.74 µM)
MIC (P. aeruginosa Ps 21; [6]): > 32 µg/mL
MIC (E. Coli W 13351; [7]): 2 µg/mL (≈ 5.49 µM)

C[C@H]1[C@H](NC(=O)/C(=N\OC(C)(C)C(=O)O)c2csc(N)n2)C(=O)N1S(=O)(=O)O [Aztreonam, reference compound]
MIC (E. Coli H 483; [1]): > 32 µg/mL
MIC (E. Coli M 50; [2]): > 32 µg/mL
MIC (E. Coli W 13352; [3]): > 32 µg/mL
MIC (P. aeruginosa Ps 32; [4]): 8 µg/mL (≈ 18.4 µM)
MIC (E. Coli W 13353; [5]): > 32 µg/mL
MIC (P. aeruginosa Ps 21; [6]): 8 µg/mL (≈ 18.4 µM)
MIC (E. Coli W 13351; [7]): > 32 µg/mL

O=C(NOC[C@@H]1CCCCN1)[C@@H]1CC[C@@H]2CN1C(=O)N2OS(=O)(=O)O [Example 19, (2S,5R)-7-oxo-N-((2S)piperidin-2-ylmethyloxy)-6-(sulfooxy)-1,6-diazabicyclo[3.2.1]octane-2-carboxamide]
MIC E. Coli H 483 (E. Coli H 483; [1]): >32 µg/mL
MIC E. Coli M 50 (E. Coli M 50; [8]): 8 µg/mL (≈ 21.1 µM)
MIC E. Coli W 13352 (E. Coli W 13352; [9]): 16 µg/mL (≈ 42.3 µM)
MIC Ps 32 (P. aeruginosa Ps 32; [10]): >32 µg/mL
MIC E. Coli W 13353 (E. Coli W 13353; [9]): 4 µg/mL (≈ 10.6 µM)
MIC Ps 21 (P. aeruginosa Ps 21; [10]): >32 µg/mL
MIC E. Coli W 13351 (E. Coli W 13351; [9]): 8 µg/mL (≈ 21.1 µM)

O=C(NOC[C@@H]1CCCN1)[C@@H]1CC[C@@H]2CN1C(=O)N2OS(=O)(=O)O [Example 1, (2S,5R)-7-oxo-N-[(2S)-pyrrolidin-2-ylmethyloxy]-6-(sulfooxy)-1,6-diazabicyclo[3.2.1]octane-2-carboxamide]
MIC (E. Coli H 483; [1]): > 32 µg/mL
MIC (E. Coli M 50; [2]): 0.5 µg/mL (≈ 1.37 µM)
MIC (E. Coli W 13352; [3]): 1 µg/mL (≈ 2.74 µM)
MIC (P. aeruginosa Ps 32; [4]): > 32 µg/mL
MIC (E. Coli W 13353; [5]): 0.5 µg/mL (≈ 1.37 µM)
MIC (P. aeruginosa Ps 21; [6]): > 32 µg/mL
MIC (E. Coli W 13351; [7]): 1 µg/mL (≈ 2.74 µM)

O=C(NOC1CCNC1)[C@@H]1CC[C@@H]2CN1C(=O)N2OS(=O)(=O)O (stereo partly drawn) [Example 30, (2S,5R)-7-oxo-N-[(3R,S)-pyrrolidin-3-yloxy]-6-(sulfooxy)-1,6-diazabicyclo[3.2.1]octane-2-carboxamide]
MIC E. Coli H 483 (E. Coli H 483; [1]): >32 µg/mL
MIC E. Coli M 50 (E. Coli M 50; [8]): 4 µg/mL (≈ 11.4 µM)
MIC E. Coli W 13352 (E. Coli W 13352; [9]): 8 µg/mL (≈ 22.8 µM)
MIC Ps 32 (P. aeruginosa Ps 32; [10]): >32 µg/mL
MIC E. Coli W 13353 (E. Coli W 13353; [9]): 4 µg/mL (≈ 11.4 µM)
MIC Ps 21 (P. aeruginosa Ps 21; [10]): >32 µg/mL
MIC E. Coli W 13351 (E. Coli W 13351; [9]): 8 µg/mL (≈ 22.8 µM)

O=C(NOC[C@@H]1CCCCN1)[C@@H]1CC[C@@H]2CN1C(=O)N2OS(=O)(=O)O [Example 18, (2S,5R)-7-oxo-N-((2S)piperidin-2-ylmethyloxy)-6-(sulfooxy)-1,6-diazabicyclo[3.2.1]octane-2-carboxamide]
MIC (E. Coli H 483): > 32 µg/mL
MIC E. Coli M 50 (E. Coli M 50; [8]): 1 µg/mL (≈ 2.64 µM)
MIC E. Coli W 13352 (E. Coli W 13352; [9]): 1 µg/mL (≈ 2.64 µM)
MIC (P. aeruginosa Ps 32; PS32, read-out: MIC Ps 32): > 32 µg/mL
MIC E. Coli W 13353 (E. Coli W 13353; [9]): 0.5 µg/mL (≈ 1.32 µM)
MIC (P. aeruginosa Ps 21; PS21, read-out: MIC Ps 21): > 32 µg/mL
MIC E. Coli W 13351 (E. Coli W 13351; [9]): 1 µg/mL (≈ 2.64 µM)
